Measurements taken from US12643867B2, “Compositions and uses thereof” (University of Virginia Patent Foundation, priority 2017, dated 2026).

How the values were obtained:
Test in all cases: SILAC LC-MS ATP acyl phosphate probe competition, native kinases in HEK293T
Assay type in all cases: binding
[1] = biological target: T1, NEK3 (Serine/threonine-protein kinase Nek3) (Homo sapiens, UniProt P51956); details: site ACT; ATP 1 mM; Ketanserin, Ritanserin 100 μM; RF001 1 mM
T1 construct: Native kinases; endogenous in cells; host or cells: HEK293T soluble proteome
T1 sequence (P51956 1-506): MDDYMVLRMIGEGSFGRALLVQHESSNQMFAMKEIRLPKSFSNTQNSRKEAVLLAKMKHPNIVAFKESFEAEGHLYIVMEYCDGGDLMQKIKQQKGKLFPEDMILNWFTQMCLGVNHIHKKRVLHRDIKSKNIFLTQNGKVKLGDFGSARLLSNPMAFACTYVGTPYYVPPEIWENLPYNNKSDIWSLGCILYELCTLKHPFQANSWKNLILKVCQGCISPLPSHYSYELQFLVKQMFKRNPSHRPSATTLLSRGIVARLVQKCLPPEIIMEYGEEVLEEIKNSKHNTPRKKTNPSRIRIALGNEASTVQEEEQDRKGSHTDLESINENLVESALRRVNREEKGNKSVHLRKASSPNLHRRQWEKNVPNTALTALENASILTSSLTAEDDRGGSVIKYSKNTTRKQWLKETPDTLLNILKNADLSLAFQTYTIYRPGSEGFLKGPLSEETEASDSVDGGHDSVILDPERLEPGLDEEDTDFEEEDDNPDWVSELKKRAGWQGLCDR
Procedure: (§1) Proteomes were diluted to 2 mg/ml in kinase buffer. The light and heavy proteomes (0.5 mg, 250 μL total reaction volume) were pre-treated with vehicle or compound, respectively (5 μL, DMSO (light) or 50× stock in DMSO (heavy)), mixed gently, and incubated at 25° C. for 30 min. […] After incubation, matched light and heavy proteomes were transferred and mixed in a 1:1 ratio in a two-dram vial containing 4:1:3 MeOH/CHCl3/H2O (2 mL MeOH, 500 AL CHCl3, 1.5 mL H2O) for extraction of proteins to remove excess probe, quickly vortexed, and centrifuged at 1,400×g for 3 min to pellet protein. Organic and aqueous layers were removed using a Pasteur pipette, and the protein pellet was transferred to a screw-top tube in 600 μL MeOH. A second extraction was performed by adding CHCl3 (150 μL) and H2O (600 μL) to each sample, vortexed, and centrifuged at 1,400×g for 3 min to pellet protein. Organic and aqueous layers were removed by pipetting. MeOH added to pellet (600 μL) and pellets were re-suspended by sonication (3×1 sec pulse, 20% amplitude) for a final extraction. Samples were then centrifuged at 17,000×g for 5 min to pellet protein and MeOH was removed by pipetting. The pellets were re-suspended in 10 M urea/25 mM ammonium bicarbonate ([…]), brought to a final volume of 1 mL with 25 mM ammonium bicarbonate, reduced with 10 mM DTT for 15 min at 65° C. allowed to cool, and then alkylated with 40 mM iodoacetamide for 30 min at 25° C. in the dark. To desalt the samples, each was transferred to a two-dram glass vial, and to the vial 4:1:2 MeOH/CHCl3/H2O (2 mL MeOH, 500 AL CHCl3, 1 mL H2O) was added. The vials were vortexed quickly, spun at 1.400×g for 3 min to pellet protein, and aqueous and organic layers were removed using a Pasteur pipette. The resulting protein pellet was transferred to a screw-top tube in 600 μL MeOH, and then CHCl3 (150 μL) and HO (600 μL) were added to extract protein a second time. The samples were vortexed quickly, centrifuged at 1,400×g to pellet protein, and the aqueous and organic layers were removed by pipetting. Resulting protein pellet was suspended in MeOH (600 μL) via sonication (3×1 sec pulse, 20% amplitude), centrifuged at 17,000×g for 5 min to pellet protein, and MeOH removed by pipetting. Protein pellets were then re-suspended in 25 mM ammonium bicarbonate (500 μL) and digested with 7.5 μg Trypsin/Lys-C(Promega, 15 μL, 0.5 μg/μL) for 3 h at 37° C. Avidin-agarose beads (Thermo Scientific Pierce, 100 AL aliquot per sample) were washed three times by adding 10 mL DPBS, centrifuged at 1,400×g for 1 min, and decanting. This wash step was repeated for a total of 3 times. Digested protein samples were mixed with washed avidin beads (100 μL) and brought to a volume of 5.5 mL with DPBS in a 15 mL conical and rotated for 1 h to enrich samples for the covalent desthiobiotin modification. The beads were washed with 25 mM ammonium bicarbonate (3× with 10 mL, centrifuge at 1,400×g for 3 min, decant) and then H2O (3× with 10 mL, centrifuge at 1,400×g for 3 min, decant). Washed beads were then transferred to a low-bind microfuge tube, centrifuged at 1,400×g for 3 min, allowed to rest for 1 min to settle beads, and then excess H2O was removed carefully using a gel-loading pipette tip. To elute peptides, 100 μL of elution buffer (50% acetonitrile, ACN; 0.1% formic acid) was added to each sample and incubated for 3 min. Beads were spun down at 1.400×g for 3 min, allowed to rest for 1 min to settle beads, and then 75 μL of peptide-containing supernatant was removed carefully using a gel-loading pipette tip and transferred to a new low bind centrifuge tube. This step was repeated two more times with 75 μL of elution buffer and all eluent were collected into the same centrifuge tube (˜225 μL total). Peptides were dried on a speed vacuum, resulting peptide samples acidified in 5% (v/v) formic acid, and stored at −80° C. until analysis.
(§2) The peptide samples were analyzed by liquid chromatography-mass spectrometry. […]

[2] = biological target: T2, KS6B2 (Ribosomal protein S6 kinase 2) (Homo sapiens, UniProt Q9UBS0); details: site Lys2; ATP 1 mM; Ketanserin, Ritanserin 100 μM; RF001 1 mM
T2 construct: measured against >50 native kinases quantified in HEK293T soluble proteomes; endogenous in cells; host or cells: HEK293T soluble proteome
T2 sequence (Q9UBS0 whole entry): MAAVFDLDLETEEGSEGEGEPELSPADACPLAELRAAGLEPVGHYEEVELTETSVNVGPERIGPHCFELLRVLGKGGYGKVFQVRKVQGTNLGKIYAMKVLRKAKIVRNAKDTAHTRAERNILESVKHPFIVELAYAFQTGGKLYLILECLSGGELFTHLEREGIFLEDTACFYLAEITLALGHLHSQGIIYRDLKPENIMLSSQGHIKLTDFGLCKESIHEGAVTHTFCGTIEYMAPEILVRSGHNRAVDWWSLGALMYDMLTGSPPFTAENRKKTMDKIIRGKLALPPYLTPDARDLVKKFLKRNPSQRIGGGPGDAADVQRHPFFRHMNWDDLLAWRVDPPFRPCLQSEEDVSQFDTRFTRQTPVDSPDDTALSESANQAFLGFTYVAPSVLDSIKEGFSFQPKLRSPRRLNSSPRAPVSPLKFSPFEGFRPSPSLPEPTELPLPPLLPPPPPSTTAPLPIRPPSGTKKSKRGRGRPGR
Procedure: as §1, §2

[3] = biological target: T3, KS6B1 (Ribosomal protein S6 kinase 1, p70 S6 kinase alpha) (Homo sapiens, UniProt P23443); details: site Lys2; ATP 1 mM; Ketanserin, Ritanserin 100 μM; RF001 1 mM
T3 construct: measured against >50 native kinases quantified in HEK293T soluble proteomes; endogenous in cells; host or cells: HEK293T soluble proteome
T3 sequence (P23443 whole entry): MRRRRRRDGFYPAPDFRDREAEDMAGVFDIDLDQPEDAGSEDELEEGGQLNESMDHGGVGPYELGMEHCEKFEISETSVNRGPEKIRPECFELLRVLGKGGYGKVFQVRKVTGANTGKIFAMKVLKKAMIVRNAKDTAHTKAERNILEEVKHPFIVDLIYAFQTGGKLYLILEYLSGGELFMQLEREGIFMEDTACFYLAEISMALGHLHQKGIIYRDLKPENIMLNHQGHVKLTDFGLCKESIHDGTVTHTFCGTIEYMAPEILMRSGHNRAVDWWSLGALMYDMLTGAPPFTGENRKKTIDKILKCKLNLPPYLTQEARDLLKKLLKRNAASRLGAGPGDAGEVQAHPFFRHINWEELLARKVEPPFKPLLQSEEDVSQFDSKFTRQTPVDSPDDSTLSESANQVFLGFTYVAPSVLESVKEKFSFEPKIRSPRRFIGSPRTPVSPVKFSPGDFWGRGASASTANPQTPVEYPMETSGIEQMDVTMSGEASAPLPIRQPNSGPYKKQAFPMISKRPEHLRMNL
Procedure: as §1, §2

[4] = biological target: T4, CDK5 (Cell division protein kinase 5) (Homo sapiens, UniProt Q00535); details: site Lys2; ATP 1 mM; Ketanserin, Ritanserin 100 μM; RF001 1 mM
T4 construct: measured against >50 native kinases quantified in HEK293T soluble proteomes; endogenous in cells; host or cells: HEK293T soluble proteome
T4 sequence (Q00535 whole entry): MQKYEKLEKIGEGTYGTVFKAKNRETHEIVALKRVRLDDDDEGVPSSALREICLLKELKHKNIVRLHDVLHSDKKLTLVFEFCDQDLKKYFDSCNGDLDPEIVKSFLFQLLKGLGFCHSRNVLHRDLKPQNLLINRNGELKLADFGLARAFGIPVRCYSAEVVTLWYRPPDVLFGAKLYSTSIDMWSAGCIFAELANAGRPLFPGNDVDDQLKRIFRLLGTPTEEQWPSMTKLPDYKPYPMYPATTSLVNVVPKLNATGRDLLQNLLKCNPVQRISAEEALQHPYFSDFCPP
Procedure: as §1, §2

[5] = biological target: T5, STK38 (Serine/threonine-protein kinase 38) (Homo sapiens, UniProt Q15208); details: site Lys1; ATP 1 mM; Ketanserin, Ritanserin 100 μM; RF001 1 mM
T5 construct: Native kinases; endogenous in cells; host or cells: HEK293T soluble proteome
T5 sequence (Q15208 whole entry): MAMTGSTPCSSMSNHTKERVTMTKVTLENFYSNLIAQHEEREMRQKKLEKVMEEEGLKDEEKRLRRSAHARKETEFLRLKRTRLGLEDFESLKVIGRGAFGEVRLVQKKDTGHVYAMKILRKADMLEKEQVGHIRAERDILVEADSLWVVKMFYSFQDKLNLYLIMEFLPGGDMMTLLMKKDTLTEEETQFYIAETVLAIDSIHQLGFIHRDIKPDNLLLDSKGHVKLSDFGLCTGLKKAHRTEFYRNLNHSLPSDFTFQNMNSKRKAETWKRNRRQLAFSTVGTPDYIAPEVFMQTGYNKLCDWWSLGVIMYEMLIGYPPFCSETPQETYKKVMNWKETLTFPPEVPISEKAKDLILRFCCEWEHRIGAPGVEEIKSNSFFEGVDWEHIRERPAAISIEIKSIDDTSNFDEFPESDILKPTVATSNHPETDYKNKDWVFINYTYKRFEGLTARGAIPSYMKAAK
Procedure: as §1, §2

[6] = biological target: T6, SLK (CTCL tumor antigen se20-9) (Homo sapiens, UniProt Q9H2G2); details: site Lys2; ATP 1 mM; Ketanserin, Ritanserin 100 μM; RF001 1 mM
T6 construct: Native kinases; endogenous in cells; host or cells: HEK293T soluble proteome
T6 sequence (Q9H2G2 whole entry): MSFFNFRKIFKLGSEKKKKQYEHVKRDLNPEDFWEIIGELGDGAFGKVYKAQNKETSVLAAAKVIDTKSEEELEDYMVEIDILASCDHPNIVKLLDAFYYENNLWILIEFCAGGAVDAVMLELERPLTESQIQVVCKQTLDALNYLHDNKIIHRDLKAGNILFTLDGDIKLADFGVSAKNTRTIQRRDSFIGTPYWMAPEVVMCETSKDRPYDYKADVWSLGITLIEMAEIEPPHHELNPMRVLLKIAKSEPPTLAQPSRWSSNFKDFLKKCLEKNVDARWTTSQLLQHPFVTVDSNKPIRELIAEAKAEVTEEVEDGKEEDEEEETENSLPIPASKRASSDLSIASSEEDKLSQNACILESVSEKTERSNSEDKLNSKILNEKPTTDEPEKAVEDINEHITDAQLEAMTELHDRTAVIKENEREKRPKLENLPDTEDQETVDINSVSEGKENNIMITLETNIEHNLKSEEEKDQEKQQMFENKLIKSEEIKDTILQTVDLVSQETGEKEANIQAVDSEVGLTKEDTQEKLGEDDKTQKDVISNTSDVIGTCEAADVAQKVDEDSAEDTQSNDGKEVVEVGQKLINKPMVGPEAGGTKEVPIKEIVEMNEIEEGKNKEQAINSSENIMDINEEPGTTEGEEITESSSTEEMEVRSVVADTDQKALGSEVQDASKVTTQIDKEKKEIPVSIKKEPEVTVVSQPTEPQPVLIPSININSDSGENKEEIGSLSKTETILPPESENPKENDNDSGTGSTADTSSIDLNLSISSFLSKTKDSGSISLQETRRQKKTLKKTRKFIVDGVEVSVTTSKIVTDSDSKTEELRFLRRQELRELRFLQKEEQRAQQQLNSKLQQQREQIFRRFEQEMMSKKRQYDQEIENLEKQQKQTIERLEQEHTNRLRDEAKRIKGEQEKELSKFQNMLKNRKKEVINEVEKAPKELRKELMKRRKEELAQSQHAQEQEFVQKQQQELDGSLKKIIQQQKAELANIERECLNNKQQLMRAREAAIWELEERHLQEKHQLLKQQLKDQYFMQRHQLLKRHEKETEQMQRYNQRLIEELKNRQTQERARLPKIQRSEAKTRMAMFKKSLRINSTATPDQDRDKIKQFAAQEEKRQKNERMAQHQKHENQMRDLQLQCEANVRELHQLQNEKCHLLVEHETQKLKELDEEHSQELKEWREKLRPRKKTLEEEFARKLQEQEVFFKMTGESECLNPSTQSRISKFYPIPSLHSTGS
Procedure: as §1, §2

[7] = biological target: T7, KCC2D (Calcium/calmodulin-dependent protein kinase type II delta chain) (Homo sapiens, UniProt Q13557); details: site Lys1; ATP 1 mM; Ketanserin, Ritanserin 100 μM; RF001 1 mM
T7 construct: measured against >50 native kinases quantified in HEK293T soluble proteomes; endogenous in cells; host or cells: HEK293T soluble proteome
T7 sequence (Q13557 whole entry): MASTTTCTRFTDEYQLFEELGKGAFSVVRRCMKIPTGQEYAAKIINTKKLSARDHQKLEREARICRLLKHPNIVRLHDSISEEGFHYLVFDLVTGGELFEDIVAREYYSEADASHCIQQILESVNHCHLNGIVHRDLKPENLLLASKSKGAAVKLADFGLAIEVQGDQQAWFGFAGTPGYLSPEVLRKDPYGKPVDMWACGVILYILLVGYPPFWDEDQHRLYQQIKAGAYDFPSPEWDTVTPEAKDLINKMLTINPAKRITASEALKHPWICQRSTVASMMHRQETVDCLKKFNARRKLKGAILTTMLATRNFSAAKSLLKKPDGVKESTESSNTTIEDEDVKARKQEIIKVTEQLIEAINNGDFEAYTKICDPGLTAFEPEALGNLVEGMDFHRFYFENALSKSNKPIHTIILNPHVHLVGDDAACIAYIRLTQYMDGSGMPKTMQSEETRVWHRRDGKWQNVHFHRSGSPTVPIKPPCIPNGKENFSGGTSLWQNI
Procedure: as §1, §2

[8] = biological target: T8, KS6A1 (Ribosomal protein S6 kinase alpha 1) (Homo sapiens, UniProt Q15418); details: site ACT; ATP 1 mM; Ketanserin, Ritanserin 100 μM; RF001 1 mM
T8 construct: measured against >50 native kinases quantified in HEK293T soluble proteomes; endogenous in cells; host or cells: HEK293T soluble proteome
T8 sequence (Q15418 whole entry): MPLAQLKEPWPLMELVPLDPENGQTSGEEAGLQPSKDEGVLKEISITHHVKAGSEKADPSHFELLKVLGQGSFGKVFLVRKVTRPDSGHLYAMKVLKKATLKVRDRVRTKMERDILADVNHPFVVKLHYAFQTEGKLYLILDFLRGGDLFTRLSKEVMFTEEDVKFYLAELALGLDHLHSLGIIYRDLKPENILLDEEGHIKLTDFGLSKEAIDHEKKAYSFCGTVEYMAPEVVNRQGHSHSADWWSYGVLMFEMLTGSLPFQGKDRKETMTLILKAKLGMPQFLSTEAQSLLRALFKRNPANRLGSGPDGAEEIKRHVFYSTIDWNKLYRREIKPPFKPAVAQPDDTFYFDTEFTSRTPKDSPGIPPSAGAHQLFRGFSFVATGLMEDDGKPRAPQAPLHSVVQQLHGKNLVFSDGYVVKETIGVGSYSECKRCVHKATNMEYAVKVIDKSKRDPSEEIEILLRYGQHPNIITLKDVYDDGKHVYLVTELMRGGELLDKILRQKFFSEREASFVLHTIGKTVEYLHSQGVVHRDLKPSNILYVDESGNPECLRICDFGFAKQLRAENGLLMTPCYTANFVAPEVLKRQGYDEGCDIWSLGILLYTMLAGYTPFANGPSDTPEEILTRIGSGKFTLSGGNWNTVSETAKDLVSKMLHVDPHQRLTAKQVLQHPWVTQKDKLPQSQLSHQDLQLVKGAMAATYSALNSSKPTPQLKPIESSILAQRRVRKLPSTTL
Procedure: as §1, §2

Row | SMILES | SILAC ratio, NEK3 probe-modified peptide [1] | SILAC ratio, KS6B2 probe-modified peptide [2] | SILAC ratio, KS6B1 probe-modified peptide [3] | SILAC ratio, CDK5 probe-modified peptide [4] | SILAC ratio, STK38 probe-modified peptide [5] | SILAC ratio, SLK probe-modified peptide [6] | SILAC ratio, KCC2D probe-modified peptide [7] | SILAC ratio, KS6A1 probe-modified peptide [8]
1 | O=C(c1ccc(F)cc1)C1CCN(CCn2c(=O)[nH]c3ccccc3c2=O)CC1 [Ketanserin] | 1.0 | 1.1 | 1.2 | 1.3 | 1.3 | 1.3 | 1.5 | 1.4
2 | Fc1ccc(C(=C2CCNCC2)c2ccc(F)cc2)cc1 [RF001, 4-(Bis(4-fluorophenyl)methylene) piperidine] | 1.0 | 1.7 | 1.0 | 1.1 | 1.4 | 1.5 | 1.2 | 1.3
3 | Cc1nc2sccn2c(=O)c1CCN1CCC(=C(c2ccc(F)cc2)c2ccc(F)cc2)CC1 [Ritanserin] | 2.2 | 1.4 | 1.3 | 1.9 | 2.0 | 3.0 | 2.3 | 2.1
